Experimental findings from US20260022143A1, “Cyclic Peptide Inhibitors of IL-23” (JANSSEN PHARMACEUTICA NV, priority 2022, published 2026) are described below.

Counter-ions that a name gives are not always drawn. Starred links: 1 amine or outer side, 2 acyl side, 3 side chain; linkers in the order of their positions; H or OH if unused. Positions of bridges follow the written chain, without caps; N, C: chain ends. Non-standard residues stand in square brackets, D forms with d. Residues, ends and D or L forms follow the SMILES beside them. *: point of attachment. Trp(7-(3-AcNH-Ph)) = CC(=O)Nc1cccc(-c2cccc3c(C[C@H](N)C(=O)O)c[nH]c23)c1; Me3N+(CH2)2O(CH2)2O(CH2)2CO = C[N+](C)(C)CCOCCOCCC(=O)*; Trp(7-Me) = Cc1cccc2c(C[C@H](N)C(=O)O)c[nH]c12; dLys(Me3) = C[N+](C)(C)CCCC[C@@H](N)C(=O)O; 3Pal(5-Me) = Cc1cncc(C[C@H](N)C(=O)O)c1; X1 = CN(CC[C@H](N[*:1])C(=O)[*:2])[*:3]; 2Nal = N[C@@H](Cc1ccc2ccccc2c1)C(=O)O; AEF = NCCOc1ccc(C[C@H](N)C(=O)O)cc1; X77 = COCCN1CC[N+]2(CC1)CCN(CC*)CC2; 3Pal = N[C@@H](Cc1cccnc1)C(=O)O; Ethyl(2-guanidino) = N=C(N)NCC*; Lys(Me) = CNCCCC[C@H](N)C(=O)O; X7 = COCCOCCOCCOCCOCCOCCC(=O)*; Pen = CC(C)(S)[C@H](N)C(=O)O; X66 = C[N+]1(CCC*)CCOCC1; Thp = NC1(C(=O)O)CCOCC1; Me2NCH2CH2 = CN(C)CC*; Tfa = O=C(C(F)(F)F)*; Sar = CNCC(=O)O; X2 = CNCC*

This series in a line: Exposed Polar Surface Area (EPSA). Format: physicochemical. To be noted: SFC on Chirex 3014 column; sample 1 mM DMSO stock; read-out: EPSA. In a few lines:
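Polarity measured by SFC on a Chirex 3014 column (35 °C, 4 mL/min) with methanol/ammonium formate in CO2 as gradient eluent. Retention times were normalised to EPSA (Å^2) against eight reference compounds.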
`CC(=O)NCCCC[C@@H]1NC(=O)[C@H](Cc2c[nH]c3c(-c4cccc(NC(C)=O)c4)cccc23)NC(=O)[C@H]([C@@H](C)O)NC(=O)[C@H](CC(N)=O)NC(=O)[C@@H](NC(=O)[C@@H](CCCNC(=N)N)NC(=O)CCOCCOCC[N+](C)(C)C)C(C)(C)SSC(C)(C)[C@@H](C(=O)N[C@@H](Cc2ccc(OCCN)cc2)C(=O)N[C@@H](Cc2ccc3ccccc3c2)C(=O)NC2(C(=O)N[C@@H](CCC(=O)O)C(=O)N[C@@H](CC(N)=O)C(=O)N[C@@H](Cc3cncc(C)c3)C(=O)N(C)CC(N)=O)CCOCC2)NC1=O` [compound 536, cPEG3aCO-r-Pen(3)-N-T-7(3NAcPh)W-K(Ac)-Pen(3)-AEF-2Nal-THP-E-N-5MePyridinAla-Sar-CONH2] ({Me3N+(CH2)2O(CH2)2O(CH2)2CO}-[dR][Pen]NT[Trp(7-(3-AcNH-Ph))]K(Ac)[Pen][AEF][2Nal][Thp]EN[3Pal(5-Me)][Sar]-NH2; disulfide 2-7): the EPSA was 210 A^2.

As for `CC(=O)N(C)CCCC[C@@H]1NC(=O)[C@H](Cc2c[nH]c3c(C)cccc23)NC(=O)[C@H]([C@@H](C)O)NC(=O)[C@H](CC(=O)N(C)C)NC(=O)[C@@H](NC(=O)CCOCCOCC[N+](C)(C)C)C(C)(C)SSC(C)(C)[C@@H](C(=O)N[C@@H](Cc2ccc(OCCN(CCOCC[N+](C)(C)C)CCOCC[N+](C)(C)C)cc2)C(=O)N[C@@H](Cc2ccc3ccccc3c2)C(=O)NC2(C(=O)N[C@@H](CCCCN(C)C(C)=O)C(=O)N[C@@H](CC(N)=O)C(=O)N[C@@H](Cc3cccnc3)C(=O)N(C)CC(=O)N(C)C)CCOCC2)NC1=O` (relative stereo) [compound 266, cPEG3aCO-Pen(3)-N(N(Me)2)-T-7MeW-K(NMeAc)-Pen(3)-AEF(BisPEG2a)(S*)-2Nal-THP-K(NMeAc)-N-3Pya-Sar-CON(Me)2], the EPSA is 157 A^2.

For the molecule `CC(=O)N(C)CCCC[C@@H]1NC(=O)[C@H](Cc2c[nH]c3c(C)cccc23)NC(=O)[C@H]([C@@H](C)O)NC(=O)[C@H](CC(=O)N(C)C)NC(=O)[C@@H](NC(=O)CCOCCOCC[N+](C)(C)C)C(C)(C)SSC(C)(C)[C@@H](C(=O)N[C@@H](Cc2ccc(OCCC[N+]3(C)CCOCC3)cc2)C(=O)N[C@@H](Cc2ccc3ccccc3c2)C(=O)NC2(C(=O)N[C@@H](CCCCN(C)C(C)=O)C(=O)N[C@@H](CC(N)=O)C(=O)N[C@@H](Cc3cccnc3)C(=O)N(C)CC(=O)N(C)C)CCOCC2)NC1=O` [compound 274, cPEG3aCO-Pen(3)-N(N(Me)2)-T-7MeW-K(NMeac)-Pen(3)-MMoPF-2Nal-THP-K(NMeAc)-N-3Pya-Sar-CON(Me)2] ({Me3N+(CH2)2O(CH2)2O(CH2)2CO}-[Pen]D(NMe2)T[Trp(7-Me)][Lys(Me)](Ac)[Pen]Y(X66)[2Nal][Thp][Lys(Me)](Ac)N[3Pal][Sar]-NMe2; disulfide 1-6), the EPSA worked out at 153 A^2.

Take `CC(=O)NCCCC[C@@H]1NC(=O)[C@H](Cc2c[nH]c3c(C)cccc23)NC(=O)[C@H]([C@@H](C)O)NC(=O)[C@H](CC(N)=O)NC(=O)[C@@H](NC(=O)[C@@H](CCCC[N+](C)(C)C)NC(C)=O)C(C)(C)SSC(C)(C)[C@@H](C(=O)N[C@@H](Cc2ccc(OCCN)cc2)C(=O)N[C@@H](Cc2ccc3ccccc3c2)C(=O)NC2(C(=O)N[C@@H](CCC(=O)O)C(=O)N[C@@H](CC(N)=O)C(=O)N[C@@H](Cc3cncc(C)c3)C(=O)N(C)CC(N)=O)CCOCC2)NC1=O` [compound 474] (Ac-[dLys(Me3)][Pen]NT[Trp(7-Me)]K(Ac)[Pen][AEF][2Nal][Thp]EN[3Pal(5-Me)][Sar]-NH2; disulfide 2-7): the EPSA was found to be 185 A^2.

Turning to `CC(=O)NCCCC[C@@H]1NC(=O)[C@H](Cc2c[nH]c3c(C)cccc23)NC(=O)[C@H]([C@@H](C)O)NC(=O)[C@H](CC(N)=O)NC(=O)[C@@H](NC(=O)C(F)(F)F)C(C)(C)SSC(C)(C)[C@@H](C(=O)N[C@@H](Cc2ccc(OCCN(C)C)cc2)C(=O)N[C@@H](Cc2ccc3ccccc3c2)C(=O)NC2(C(=O)N[C@@H](CCCCNC(C)=O)C(=O)N[C@@H](CC(N)=O)C(=O)N[C@@H](Cc3cccnc3)C(=O)N(C)CC(N)=O)CCOCC2)NC1=O` [compound 53] (Tfa-[Pen]NT[Trp(7-Me)]K(Ac)[Pen]Y(Me2NCH2CH2)[2Nal][Thp]K(Ac)N[3Pal][Sar]-NH2; disulfide 1-6 (inferred)), the EPSA was found to be 155 A^2.

Take `CC(=O)NCCCC[C@@H]1NC(=O)[C@H](Cc2c[nH]c3c(-c4cccc(NC(C)=O)c4)cccc23)NC(=O)[C@H]([C@@H](C)O)NC(=O)[C@H](CC(N)=O)NC(=O)[C@@H](NC(=O)[C@@H](CCCC[N+](C)(C)C)NC(C)=O)C(C)(C)SSC(C)(C)[C@@H](C(=O)N[C@@H](Cc2ccc(OCCNC(=N)N)cc2)C(=O)N[C@@H](Cc2ccc3ccccc3c2)C(=O)NC2(C(=O)N[C@@H](CCC(=O)O)C(=O)N[C@@H](CC(N)=O)C(=O)N[C@@H](Cc3cncc(C)c3)C(=O)N(C)CC(N)=O)CCOCC2)NC1=O` [compound 480, MeCO-k(Me)3-Pen(3)-N-T-7(3NAcPh)W-K(Ac)-Pen(3)-AEF(G)-2Nal-THP-E-N-5MePyridinAla-Sar-CONH2] (Ac-[dLys(Me3)][Pen]NT[Trp(7-(3-AcNH-Ph))]K(Ac)[Pen]Y(Ethyl(2-guanidino))[2Nal][Thp]EN[3Pal(5-Me)][Sar]-NH2; disulfide 2-7): the EPSA is 198 A^2.

With `COCCN1CC[N+]2(CC1)CCN(CCOc1ccc(C[C@H](NC(=O)[C@H]3NC(=O)[C@H](CCCCN(C)C(C)=O)NC(=O)[C@H](Cc4c[nH]c5c(C)cccc45)NC(=O)[C@H]([C@@H](C)O)NC(=O)[C@H](CC(=O)N(C)C)NC(=O)[C@@H](NC(=O)CCOCCOCC[N+](C)(C)C)C(C)(C)SSC3(C)C)C(=O)N[C@@H](Cc3ccc4ccccc4c3)C(=O)NC3(C(=O)N[C@@H](CCCCN(C)C(C)=O)C(=O)N[C@@H](CC(N)=O)C(=O)N[C@@H](Cc4cccnc4)C(=O)N(C)CC(=O)N(C)C)CCOCC3)cc1)CC2` [compound 262, cPEG3aCO-Pen(3)-N(N(Me)2)-T-7MeW-K(NMeAc)-Pen(3)-MTASF-2Nal-THP-K(NMeAc)-N-3Pya-Sar-CON(Me)2] ({Me3N+(CH2)2O(CH2)2O(CH2)2CO}-[Pen]D(NMe2)T[Trp(7-Me)][Lys(Me)](Ac)[Pen]Y(X77)[2Nal][Thp][Lys(Me)](Ac)N[3Pal][Sar]-NMe2; disulfide 1-6), the EPSA is 145 A^2.

On to `COCCOCCOCCOCCOCCOCCC(=O)N(C)CC[C@@H]1NC(=O)[C@H](Cc2c[nH]c3c(C)cccc23)NC(=O)[C@H]([C@@H](C)O)NC(=O)[C@H](CC(=O)N(C)C)NC(=O)[C@@H](NC(C)=O)C(C)(C)SSC(C)(C)[C@@H](C(=O)N[C@@H](Cc2ccc(OCCN)cc2)C(=O)N[C@@H](Cc2ccc3ccccc3c2)C(=O)NC2(C(=O)N[C@@H](CCC(=O)O)C(=O)N[C@@H](CC(N)=O)C(=O)N[C@@H](Cc3cccnc3)C(=O)N(C)CC(=O)N(C)C)CCOCC2)NC1=O` [compound 158, MeCO-Pen(3)-N(N(Me)2)-T-7MeW-Dab(NMeCOmPEG6)-Pen(3)-AEF-2Nal-THP-E-N-3Pya-Sar-CON(Me)2] (Ac-[Pen]D(NMe2)T[Trp(7-Me)][X1](X7)[Pen][AEF][2Nal][Thp]EN[3Pal][Sar]-NMe2; disulfide 1-6), for which the EPSA worked out at 160 A^2.

With `CNCCOc1ccc(C[C@H](NC(=O)[C@H]2NC(=O)[C@H](CCCCNC(C)=O)NC(=O)[C@H](Cc3c[nH]c4c(C)cccc34)NC(=O)[C@H]([C@@H](C)O)NC(=O)[C@H](CC(N)=O)NC(=O)[C@@H](NC(C)=O)C(C)(C)SSC2(C)C)C(=O)N[C@@H](Cc2ccc3ccccc3c2)C(=O)NC2(C(=O)N[C@@H](CCCCNC(C)=O)C(=O)N[C@@H](CC(N)=O)C(=O)N[C@@H](Cc3cccnc3)C(=O)N(C)CC(N)=O)CCOCC2)cc1` [compound 47] (Ac-[Pen]NT[Trp(7-Me)]K(Ac)[Pen]Y(X2)[2Nal][Thp]K(Ac)N[3Pal][Sar]-NH2; disulfide 1-6 (inferred)), the EPSA was found to be 154 A^2.
